Assay results: the supplement of paper PMC10307832

Key:
Assay in all cases: relative viability (nuclei count vs DMSO), 5 days (fraction); higher = more cells survive
ALW-II-49-7 + Trametinib = compound: Cc1ccc(C(=O)Nc2cccc(C(F)(F)F)c2)cc1Nc1cncc(C(N)=O)c1 [ALW-II-49-7] + CC(=O)Nc1cccc(-n2c(=O)n(C3CC3)c(=O)c3c(Nc4ccc(I)cc4F)n(C)c(=O)c(C)c32)c1 [Trametinib] (partner 0.02 µM)
In short: (§1)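 Cells from lung cancer lines were seeded into 1536-well plates and, one day later, dosed by pin tool. Treatments were either a single drug or a fixed dose of an anchor drug with five library-drug doses (not always all listed) in √10 steps. After 5 days, nuclei were stained in a one-step fixation (final 0.05% Triton X-100, 1% formaldehyde, 1 ug/ml Hoechst) and counted on 4× images, and relative viability is the treated-to-vehicle nuclei ratio, as the median of duplicate plates.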

Dasatinib + OSI-027 = compound: Cc1nc(Nc2ncc(C(=O)Nc3c(C)cccc3Cl)s2)cc(N2CCN(CCO)CC2)n1 [Dasatinib] + COc1cccc2cc(-c3nc([C@H]4CC[C@H](C(=O)O)CC4)n4ncnc(N)c34)[nH]c12 [OSI-027] (partner 0.5 µM)
In short: as §1

ALW-II-49-7 + Decitabine = compound: Cc1ccc(C(=O)Nc2cccc(C(F)(F)F)c2)cc1Nc1cncc(C(N)=O)c1 [ALW-II-49-7] + Nc1ncn([C@H]2C[C@H](O)[C@@H](CO)O2)c(=O)n1 [Decitabine] (partner 2 µM)
In short: as §1

Dasatinib + Palbociclib = compound: Cc1nc(Nc2ncc(C(=O)Nc3c(C)cccc3Cl)s2)cc(N2CCN(CCO)CC2)n1 [Dasatinib] + CC(=O)c1c(C)c2cnc(Nc3ccc(N4CCNCC4)cn3)nc2n(C2CCCC2)c1=O [Palbociclib] (partner 0.5 µM)
In short: as §1

Row | Cell Line | relative viability (ALW-II-49-7 + Trametinib; first compound 0.08 µM) | relative viability (ALW-II-49-7 + Trametinib; first compound 0.253 µM) | relative viability (ALW-II-49-7 + Trametinib; first compound 0.8 µM) | relative viability (ALW-II-49-7 + Trametinib; first compound 2.53 µM) | relative viability (ALW-II-49-7 + Trametinib; first compound 8 µM) | relative viability (Dasatinib + OSI-027; first compound 0.005 µM) | relative viability (Dasatinib + OSI-027; first compound 0.01581 µM) | relative viability (Dasatinib + OSI-027; first compound 0.05 µM) | relative viability (Dasatinib + OSI-027; first compound 0.1581 µM) | relative viability (Dasatinib + OSI-027; first compound 0.5 µM) | relative viability (ALW-II-49-7 + Decitabine; first compound 0.08 µM) | relative viability (ALW-II-49-7 + Decitabine; first compound 0.253 µM) | relative viability (ALW-II-49-7 + Decitabine; first compound 0.8 µM) | relative viability (ALW-II-49-7 + Decitabine; first compound 2.53 µM) | relative viability (ALW-II-49-7 + Decitabine; first compound 8 µM) | relative viability (Dasatinib + Palbociclib; first compound 0.005 µM) | relative viability (Dasatinib + Palbociclib; first compound 0.01581 µM) | relative viability (Dasatinib + Palbociclib; first compound 0.05 µM) | relative viability (Dasatinib + Palbociclib; first compound 0.1581 µM) | relative viability (Dasatinib + Palbociclib; first compound 0.5 µM)
1 | NCI-H1734 | 0.641 | 0.749 | 0.668 | 0.622 | 0.593 | 0.562 | 0.432 | 0.476 | 0.411 | 0.307 | 0.492 | 0.53 | 0.527 | 0.584 | 0.574 | 0.328 | 0.285 | 0.295 | 0.208 | 0.2
2 | NCI-H1755 | 0.724 | 0.879 | 0.786 | 0.747 | 0.681 | 0.679 | 0.604 | 0.507 | 0.384 | 0.191 | 0.66 | 0.726 | 0.719 | 0.756 | 0.719 | 0.438 | 0.435 | 0.401 | 0.322 | 0.235
3 | NCI-H1792 | 0.583 | 0.436 | 0.42 | 0.369 | 0.471 | 0.774 | 0.559 | 0.681 | 0.461 | 0.333 | 0.553 | 0.356 | 0.486 | 0.506 | 0.633 | 0.685 | 0.639 | 0.566 | 0.429 | 0.271
4 | NCI-H1793 | 0.365 | 0.404 | 0.486 | 0.409 | 0.443 | 0.2 | 0.238 | 0.234 | 0.218 | 0.147 | 0.518 | 0.527 | 0.516 | 0.471 | 0.53 | 0.217 | 0.279 | 0.236 | 0.247 | 0.231
5 | NCI-H1915 | 0.305 | 0.383 | 0.334 | 0.251 | 0.262 | 0.559 | 0.516 | 0.463 | 0.187 | 0.164 | 0.257 | 0.294 | 0.261 | 0.262 | 0.264 | 0.482 | 0.438 | 0.403 | 0.195 | 0.163
6 | NCI-H1944 | 0.405 | 0.427 | 0.418 | 0.339 | 0.405 | 0.365 | 0.404 | 0.284 | 0.179 | 0.174 | 0.421 | 0.432 | 0.423 | 0.486 | 0.389 | 0.315 | 0.242 | 0.249 | 0.119 | 0.111
7 | NCI-H1975 | 0.384 | 0.581 | 0.288 | 0.367 | 0.311 | 0.608 | 0.589 | 0.556 | 0.32 | 0.201 | 0.43 | 0.375 | 0.319 | 0.375 | 0.388 | 0.519 | 0.527 | 0.482 | 0.341 | 0.134
8 | NCI-H1993 | 0.583 | 0.481 | 0.648 | 0.608 | 0.445 | 0.512 | 0.524 | 0.491 | 0.532 | 0.554 | 0.591 | 0.567 | 0.603 | 0.576 | 0.587 | 0.65 | 0.623 | 0.622 | 0.662 | 0.373
9 | NCI-H2009 | 0.247 | 0.32 | 0.299 | 0.341 | 0.266 | 0.698 | 0.501 | 0.407 | 0.189 | 0.158 | 0.326 | 0.446 | 0.368 | 0.438 | 0.467 | 0.186 | 0.137 | 0.138 | 0.103 | 0.101
10 | NCI-H2023 | 0.468 | 0.557 | 0.69 | 0.503 | 0.53 | 0.418 | 0.326 | 0.248 | 0.26 | 0.211 | 0.226 | 0.214 | 0.255 | 0.249 | 0.347 | 0.319 | 0.304 | 0.303 | 0.326 | 0.204
11 | NCI-H2085 | 0.534 | 0.512 | 0.477 | 0.562 | 0.518 | 0.554 | 0.626 | 0.34 | 0.251 | 0.164 | 0.515 | 0.537 | 0.48 | 0.523 | 0.55 | 0.495 | 0.485 | 0.395 | 0.191 | 0.206
12 | NCI-H2087 | 0.214 | 0.211 | 0.228 | 0.189 | 0.188 | 0.571 | 0.607 | 0.697 | 0.531 | 0.278 | 0.244 | 0.254 | 0.212 | 0.311 | 0.203 | 0.223 | 0.206 | 0.238 | 0.184 | 0.142
